Patent US10413505B1, “Pharmaceutical compositions and methods of using the same” (priority 2017, dated 2019)
Where “and” joins values, the source holds several entries; their conditions need not be identical. Equal entries are not always repeated.

Key:
[1] = Example 1 urinary pharmacokinetics after intranasal administration; format: in vivo, human; settings: healthy subjects; single intranasal 160 mg cocaine HCl; urine 0-12 h; metabolites as cocaine equivalents
Protocol: (§1) A single dose of a pharmaceutical composition was administered to both nostrils using cottonoid pledgets. […] Each pledget absorbed approximately 1 mL of pharmaceutical composition (i.e., 40 mg cocaine hydrochloride). Two soaked pledgets were placed into each nasal cavity of the subject and against the anterior septum for 20 minutes; thus, a total dose of 160 mg of cocaine hydrochloride was administered.
Urine samples were collected pre-dose and at the following intervals from the start of intranasal application of the pharmaceutical composition: 0-2 hours, 2-4 hours, 4-8 hours, and 8-12 hours. […] A 25-μL aliquot of each urine sample was processed by liquid-liquid extraction.
Urinary pharmacokinetic parameters were analyzed using noncompartmental methods.

[2] = Example 2 plasma pharmacokinetics, normal renal function vs severe renal impairment
[3] = Example 1 single-dose plasma pharmacokinetics after intranasal administration; format: in vivo, human; settings: healthy subjects; single intranasal 160 mg cocaine HCl; plasma, >12 h after dosing
Protocol: Single-dose plasma and urinary pharmacokinetics of the pharmaceutical composition following intranasal administration was characterized in this study. This was a single-dose study in 30 healthy volunteers. The objective of the study was to examine the systemic pharmacokinetics of the pharmaceutical composition following acute, topical intranasal administration.
as §1
Blood samples were collected pre-dose (30 minutes before pledget insertion), and 7.5, 15, 20, 30, 45, 60, 75, 90, and 105 minutes and 2, 3, 4, 6, 8, 10, and 12 hours from the start of application of the pharmaceutical composition.
The effect of gender on Cmax, Tmax, AUClast, AUCinf, and t1/2 was determined. The effects of age, body weight, and BMI on AUClast were determined.

[4] = Example 3 urinary pharmacokinetics, normal hepatic function vs hepatic impairment; format: in vivo, human; settings: for Urine Recovery as % of Dose, Geomean / Urine Recovery as % of Dose, Mean: 0-32 h, single intranasal dose; for CLr Geomean / CLr Mean: Table 26
Protocol: Urine was collected prior to dosing and from 0-2, 2-4, 4-8, 8-12, 12-24, and 24-32 hours after beginning of dose application. […] Urinary pharmacokinetic parameters included total urinary recovery (μg), urinary recovery as a percentage of dose, and CLr.

[5] = normal renal function, single intranasal 160 mg cocaine HCl, plasma
[6] = severe renal impairment, single intranasal 160 mg cocaine HCl, plasma
[7] = normal hepatic function, single intranasal 160 mg cocaine HCl
[8] = subjects with hepatic impairment
[9] = subjects with hepatic impairment, 32 hours post administration
[10] = subjects with hepatic impairment, Table 30
[11] = subjects with normal hepatic function
[12] = subjects with normal hepatic function, Table 29

SMILES: CN1[C@H]2CC[C@@H]1[C@@H](C(=O)O)[C@@H](OC(=O)c1ccccc1)C2 [BE, benzoylecgonine]
- Total Urinary Recovery (Geometric mean) [1]: 713 µg
- Total Urinary Recovery (Mean) [1]: 816 µg
- Total Urinary Recovery (Median) [1]: 769 µg
- Urinary Recovery (Geometric mean) [1]: 0.467 % dose
- Urinary Recovery (Mean) [1]: 0.534 % dose
- Urinary Recovery (Median) [1]: 0.504 % dose
- AUC0→t (Geometric mean) [2, 5]: 589.5 ng·h/mL
- AUC0→t (Max) [2, 5]: 2126 ng·h/mL
- AUC0→t (Mean) [2, 5]: 762.1 ng·h/mL
- AUC0→t (Median) [2, 5]: 616 ng·h/mL
- AUC0→t (Min) [2, 5]: 167.4 ng·h/mL
- AUC0→∞ (Geometric mean) [2, 5]: 639.2 ng·h/mL
- AUC0→∞ (Max) [2, 5]: 2284 ng·h/mL
- AUC0→∞ (Mean) [2, 5]: 823.8 ng·h/mL
- AUC0→∞ (Median) [2, 5]: 676 ng·h/mL
- AUC0→∞ (Min) [2, 5]: 166.1 ng·h/mL
- Clast (Geometric mean) [2, 5]: 4 ng/mL and 3.96 ng/mL
- Clast (Max) [2, 5]: 13.60 ng/mL
- Clast (Mean) [2, 5]: 5.08 ng/mL
- Clast (Median) [2, 5]: 4.34 ng/mL
- Clast (Min) [2, 5]: 1.32 ng/mL
- Cmax (Geometric mean) [2, 5]: 40.9 ng/mL
- Cmax (Max) [2, 5]: 158.0 ng/mL
- Cmax (Mean) [2, 5]: 55.7 ng/mL
- Cmax (Median) [2, 5]: 42.1 ng/mL
- Cmax (Min) [2, 5]: 9.0 ng/mL
- Tlast (Geometric mean) [2, 5]: 32.0 h
- Tlast (Max) [2, 5]: 32.0 h
- Tlast (Mean) [2, 5]: 32.0 h
- Tlast (Median) [2, 5]: 32.0 h
- Tlast (Min) [2, 5]: 1920 min
- Tmax (Geometric mean) [2, 5]: 2.75 h
- Tmax (Max) [2, 5]: 6.00 h
- Tmax (Mean) [2, 5]: 3.22 h
- Tmax (Median) [2, 5]: 2.5 h
- Tmax (Min) [2, 5]: 75 min
- t1/2 (Geometric mean) [2, 5]: 8.429 h
- t1/2 (Max) [2, 5]: 9.79 h
- t1/2 (Mean) [2, 5]: 8.47 h
- t1/2 (Median) [2, 5]: 8.32 h
- t1/2 (Min) [2, 5]: 442 min
- geometric mean AUClast, fold higher than in normal subjects ([2]; severe renal impairment vs normal renal function): more than 3.5 fold
- AUC0→t (Geometric mean) [2, 6]: 2091 ng·h/mL
- AUC0→t (Max) [2, 6]: 6242 ng·h/mL
- AUC0→t (Mean) [2, 6]: 2733.6 ng·h/mL
- AUC0→t (Median) [2, 6]: 1758 ng·h/mL
- AUC0→t (Min) [2, 6]: 605.7 ng·h/mL
- Clast (Geometric mean) [2, 6]: 41.3 ng/mL
- Clast (Max) [2, 6]: 133.0 ng/mL
- Clast (Mean) [2, 6]: 54.36 ng/mL
- Clast (Median) [2, 6]: 35.7 ng/mL
- Clast (Min) [2, 6]: 14.50 ng/mL
- Cmax (Geometric mean) [2, 6]: 90.5 ng/mL
- Cmax (Max) [2, 6]: 290.0 ng/mL
- Cmax (Mean) [2, 6]: 120.4 ng/mL
- Cmax (Median) [2, 6]: 75.8 ng/mL
- Cmax (Min) [2, 6]: 23.7 ng/mL
- Tlast (Geometric mean) [2, 6]: 32.0 h
- Tlast (Max) [2, 6]: 32.0 h
- Tlast (Mean) [2, 6]: 32.0 h
- Tlast (Median) [2, 6]: 32.0 h
- Tlast (Min) [2, 6]: 1920 min
- Tmax (Geometric mean) [2, 6]: 6.13 h
- Tmax (Max) [2, 6]: 12.0 h
- Tmax (Mean) [2, 6]: 6.625 h
- Tmax (Median) [2, 6]: 6.0 h
- Tmax (Min) [2, 6]: 180 min
- t1/2 (Geometric mean) [2, 6]: 24.65 h
- t1/2 (Max) [2, 6]: 31.62 h
- t1/2 (Mean) [2, 6]: 24.97 h
- t1/2 (Median) [2, 6]: 24.0 h
- t1/2 (Min) [2, 6]: 1191 min
- plasma level not exceeded (metabolite not detectable in plasma) [3]: ≤ 100 ng/mL
- Urine Recovery as % of Dose, Geomean ([4]; Impaired hepatic function): 2.74 % of Dose
- Urine Recovery as % of Dose, Mean ([4]; Impaired hepatic function): 3.30 % of Dose
- CLr Geomean ([4]; Impaired hepatic function): 2.59 L/h
- CLr Mean ([4]; Impaired hepatic function): 2.90 L/h
- Urine Recovery as % of Dose, Geomean ([4]; Normal hepatic function): 1.42 % of Dose
- Urine Recovery as % of Dose, Mean ([4]; Normal hepatic function): 1.73 % of Dose
- CLr Geomean ([4]; Normal hepatic function): 3.96 L/h
- CLr Mean ([4]; Normal hepatic function): 4.30 L/h
- 0-32 h Urinary Recovery (geometric mean) [4, 7]: 1928.3 µg
- 0-32 h Urinary Recovery (mean) [4, 7]: 2359.75 µg
- 0-32 h Urinary Recovery (median) [4, 7]: 2098.9 µg
- Renal Clearance, geometric mean [4, 8]: 43.11 mL/min
- Renal Clearance, mean [4, 8]: 48.27 mL/min
- Renal Clearance, median [4, 8]: 47.80 mL/min
- 0-32 h Urinary Recovery (geometric mean) [4, 9]: 3735.6 µg
- 0-32 h Urinary Recovery (mean) [4, 9]: 4500 µg
- 0-32 h Urinary Recovery (median) [4, 9]: 3283.7 µg
- Renal Clearance, geometric mean [4, 10]: 43.11 mL/min
- Renal Clearance, mean [4, 10]: 48.273 mL/min
- Renal Clearance, median [4, 10]: 47.8 mL/min
- Renal Clearance, geometric mean [4, 11]: 65.948 mL/min
- Renal Clearance, mean [4, 11]: 71.585 mL/min
- Renal Clearance, median [4, 11]: 58.237 mL/min
- Renal Clearance, geometric mean [4, 12]: 65.95 mL/min
- Renal Clearance, mean [4, 12]: 71.585 mL/min
- Renal Clearance, median [4, 12]: 58.23 mL/min
